Like-named read-outs stand apart in the source and are kept apart here.
Key:
[1] = tested on: Hela cell line; experiment: MTT test of inhibiting tumor cell activity, Hela; conditions: read-out: Cytotoxic activity (IC50, μM) Hela
Protocol: (§1) 3, cell lines: Hela, BGC823, A549 cell line and normal human hepatocytes which are available from Wu Han boster Co., Ltd.;
(§2) Hela, BGC823, A549 cell line and normal human hepatocytes in logarithmic growth phase are subjected to 1000 rpm centrifugation for 5 min, supernatant is then discarded, moderate medium is suspended, the cell concentration is adjusted to 3.5×10^4/well, the cells were seeded in 96-wells culture plate, and following experimental groups are set:
(§3) a negative control group; 22 test groups with same concentration (ie: groups of Compound (1) to Compound (22)); 2 control groups: groups of podophyllotoxin, 4′-demethylepipodophyllotoxin and etoposide.
(§4) Taking RPMI1640 containing 10% of calf serum as nutrient solution, 0.10 mL of cells per well is incubated under conditions of 37 V, 5% CO2 and saturated humidity for 24 h to nearly be covered, then the nutrient solution is discarded. […] 100 μl of DMSO is added to each well, then vibrated at 37° C. by shaker table for 30 min, then measuring absorbance (OD) at 492 nm, calculating MTT ratio=OD value of drug group/OD value of the negative control group.

[2] = tested on: A549 cell line; experiment: MTT test of inhibiting tumor cell activity, A549; conditions: read-out: Cytotoxic activity (IC50, μM) A549
Protocol: as §1, §2, §3, §4

[3] = tested on: BGC823 cell line; experiment: MTT test of inhibiting tumor cell activity, BGC823; conditions: read-out: Cytotoxic activity (IC50, μM) BGC823
Protocol: as §1, §2, §3, §4

[4] = tested on: Hela cell line
Protocol: as §1, §2, §3, §4

[5] = tested on: BGC823 cell line
Protocol: as §1, §2, §3, §4

[6] = tested on: A549 cell line
Protocol: as §1, §2, §3, §4

[7] = Hela cells, MTT, 48 h cultivation
[8] = A549 cells, MTT, 48 h cultivation
[9] = BGC823 cells, MTT, 48 h cultivation

Compound	IC50 [1, 7]	IC50 [2, 8]	IC50 [3, 9]	further results
4-N—(N,N-dimethylamino metanil)-4-deoxy-podophyllotoxin [Compound 15]	1.33 ± 0.2 µM	> 100 µM	2.59 ± 0.21 µM	–
COc1cc(C2c3cc4c(cc3C(O)C3COC(=O)C23)OCO4)cc(OC)c1O (stereo not drawn) [4′-demethylepipodophyllotoxin, reference compound]	49 µM	52 µM	63 µM	–
COc1cc(C2c3cc4c(cc3C(Nc3ccc(Cl)c(C)c3)C3COC(=O)C23)OCO4)cc(OC)c1OC (stereo not drawn) [Compound 1, 4-N-(4-chloro-3-methylaniline)-4-deoxy-podophyllotoxin]	–	–	–	IC50 [4]: 1.26 ± 0.37 µM; IC50 [5]: 0.62 ± 0.13 µM; IC50 [6]: 1.75 ± 0.83 µM
COc1ccc(NC2c3cc4c(cc3C(c3cc(OC)c(OC)c(OC)c3)C3C(=O)OCC23)OCO4)cc1F (stereo not drawn) [Compound 3, 4-N-(3-fluoro-4-methoxyaniline)-4-deoxy-podophyllotoxin]	2.57 ± 0.87 µM	1.97 ± 0.32 µM	3.16 ± 1.11 µM	–
COc1ccc(NC2c3cc4c(cc3C(c3cc(OC)c(O)c(OC)c3)C3C(=O)OCC23)OCO4)cc1F (stereo not drawn) [Compound 4, 4-N-(3-fluoro-4-methoxyaniline)-4-deoxy-4′-demethylepipodophyllotoxin]	1.97 ± 0.16 µM	3.04 ± 0.23 µM	0.4 ± 0.17 µM	–
COc1cc(C2c3cc4c(cc3C(Nc3ccc(Cc5ccc(N)cc5)cc3)C3COC(=O)C23)OCO4)cc(OC)c1OC (stereo not drawn) [Compound 5, 4-N-(4,4′-diaminodiphenylmethane)-4-deoxy-podophyllotoxin]	7.07 ± 1.63 µM	2.32 ± 0.06 µM	17.2 ± 0.34 µM	–
COc1cc(C2c3cc4c(cc3C(Nc3ccc(Cc5ccc(N)cc5)cc3)C3COC(=O)C23)OCO4)cc(OC)c1O (stereo not drawn) [Compound 6, 4-N-(4,4′-diaminodiphenylmethane)-4-deoxy-4′-demethylepipodophyllotoxin]	0.56 ± 0.17 µM	2.2 ± 0.25 µM	3.52 ± 0.43 µM	–
COc1ccccc1NC1c2cc3c(cc2C(c2cc(OC)c(OC)c(OC)c2)C2C(=O)OCC12)OCO3 (stereo not drawn) [Compound 7, 4-N-(o-aminoanisole)-4-deoxy-podophyllotoxin]	13.4 ± 3.31 µM	3.41 ± 0.1 µM	6.26 ± 0.36 µM	–
COc1ccccc1NC1c2cc3c(cc2C(c2cc(OC)c(O)c(OC)c2)C2C(=O)OCC12)OCO3 (stereo not drawn) [Compound 8, 4-N-(o-aminoanisole)-4-deoxy-4′-demethylepipodophyllotoxin]	1.72 ± 0.3 µM	15.3 ± 0.45 µM	5.63 ± 1.2 µM	–
COc1ccc(Cl)cc1NC1c2cc3c(cc2C(c2cc(OC)c(OC)c(OC)c2)C2C(=O)OCC12)OCO3 (stereo not drawn) [Compound 9, 4-N-(4-chloro-2-aminoanisole)-4-deoxy-podophyllotoxin]	8.07 ± 1.81 µM	1.71 ± 0.26 µM	1.24 ± 0.06 µM	–
COc1ccc(Cl)cc1NC1c2cc3c(cc2C(c2cc(OC)c(O)c(OC)c2)C2C(=O)OCC12)OCO3 (stereo not drawn) [Compound 10, 4-N-(4-chloro-2-aminoanisole)-4-deoxy-4′-demethylepipodophyllotoxin]	1.35 ± 0.18 µM	3.72 ± 0.41 µM	1.61 ± 0.37 µM	–
COc1cc(C2c3cc4c(cc3C(Nc3ccccc3C#N)C3COC(=O)C23)OCO4)cc(OC)c1OC (stereo not drawn) [Compound 11, 4-N-(o-aminobenzonitrile)-4-deoxy-podophyllotoxin]	16.9 ± 1.48 µM	1.02 ± 0.07 µM	> 100 µM	–
COc1cc(C2c3cc4c(cc3C(Nc3ccccc3C#N)C3COC(=O)C23)OCO4)cc(OC)c1O (stereo not drawn) [Compound 12, 4-N-(o-aminobenzonitrile)-4-deoxy-4′-demethylepipodophyllotoxin]	1.92 ± 1.21 µM	11.6 ± 1.63 µM	7.91 ± 0.59 µM	–
COc1cc(C2c3cc4c(cc3C(Nc3cc(Cl)c(O)c(Cl)c3)C3COC(=O)C23)OCO4)cc(OC)c1OC (stereo not drawn) [Compound 13, 4-N-(2,6-dichloro-4-aminophenol)-4-deoxy-podophyllotoxin]	17.6 ± 2.39 µM	9.66 ± 0.35 µM	1.58 ± 0.16 µM	–
COc1cc(C2c3cc4c(cc3C(Nc3cc(Cl)c(O)c(Cl)c3)C3COC(=O)C23)OCO4)cc(OC)c1O (stereo not drawn) [Compound 14, 4-N-(2,6-dichloro-4-aminophenol)-4-deoxy-4′-demethylepipodophyllotoxin]	14.7 ± 0.42 µM	9.41 ± 0.59 µM	13.8 ± 1.42 µM	–
COc1cc(C2c3cc4c(cc3C(Nc3cccc(S(=O)(=O)N(C)C)c3)C3COC(=O)C23)OCO4)cc(OC)c1O (stereo not drawn) [Compound 16, 4-N—(N,N-dimethylaminometanil)-4-deoxy-4′-demethylepipodophyllotoxin]	1.06 ± 0.57 µM	2.08 ± 0.26 µM	1.52 ± 0.39 µM	–
CCc1ccc([N+](=O)[O-])cc1NC1c2cc3c(cc2C(c2cc(OC)c(OC)c(OC)c2)C2C(=O)OCC12)OCO3 (stereo not drawn) [Compound 17, 4-N-(2-ethyl-5-nitroaniline)-4-deoxy-podophyllotoxin]	6.01 ± 0.71 µM	1.4 ± 0.28 µM	4.24 ± 0.79 µM	–
COc1cc(C2c3cc4c(cc3C(Nc3ccccc3Sc3ccccc3N)C3COC(=O)C23)OCO4)cc(OC)c1OC (stereo not drawn) [Compound 19, 4-N-(2 2′-diaminodiphenylsulfide)-4-deoxy-podophyllotoxin]	2.14 ± 0.21 µM	23.2 ± 0.72 µM	6.46 ± 0.33 µM	–
COc1cc(C2c3cc4c(cc3C(Nc3ccccc3Sc3ccccc3N)C3COC(=O)C23)OCO4)cc(OC)c1O (stereo not drawn) [Compound 20, 4-N-(2 2′-diaminodiphenylsulfide)-4-deoxy-4′-demethylepipodophyllotoxin]	16.3 ± 0.39 µM	1.42 ± 0.12 µM	2.17 ± 0.23 µM	–
COc1cc(C2c3cc4c(cc3C(Nc3ccccc3C(F)(F)F)C3COC(=O)C23)OCO4)cc(OC)c1OC (stereo not drawn) [Compound 21, 4-N-(2-aminobenzotrifluoride)-4-deoxy-podophyllotoxin]	2.45 ± 3.04 µM	2.11 ± 0.05 µM	23.2 ± 0.76 µM	–
COc1cc(C2c3cc4c(cc3C(Nc3ccccc3C(F)(F)F)C3COC(=O)C23)OCO4)cc(OC)c1O (stereo not drawn) [Compound 22, 4-N-(2-aminobenzotrifluoride)-4-deoxy-4′-demethylepipodophyllotoxin]	5.89 ± 0.48 µM	9.72 ± 0.98 µM	6.01 ± 0.12 µM	–
COc1cc([C@@H]2c3cc4c(cc3[C@@H](O[C@@H]3O[C@@H]5CO[C@@H](C)O[C@H]5[C@H](O)[C@H]3O)[C@H]3COC(=O)[C@H]23)OCO4)cc(OC)c1O [VP-16, etoposide, reference compound]	13.2 ± 1.65 µM	31.1 ± 1.72 µM	22.3 ± 2.97 µM	–
COc1cc([C@@H]2c3cc4c(cc3[C@H](O)[C@H]3COC(=O)[C@H]23)OCO4)cc(OC)c1OC [podophyllotoxin, reference compound]	–	–	–	IC50 ([1]; Homo sapiens, HeLa, 48 h): 55 µM; IC50 ([2]; Homo sapiens, A549, 48 h): 67 µM; IC50 ([3]; Homo sapiens, BGC-823, 48 h): 75 µM

Source: patent US9714254B2, “Anilino podophyllin derivative having antitumor activity, method for preparation thereof, and use thereof” (HUBEI UNIVERSITY OF TECHNOLOGY, priority 2013, dated 2017)
